Data published in article PMC5000617, “Antiproliferative and Pro-Apoptotic Effect of Novel Nitro-Substituted Hydroxynaphthanilides on Human Cancer Cell Lines” (International Journal of Molecular Sciences, 2016).

What was measured:
MCF-7 cells [1] = assay: WST-1 cell proliferation assay, MCF-7; assay type: cell-based, human; conditions: for IC50: Homo sapiens, MCF7, WST-1, 24 h, 0.5-20 μM, mean ± SD; for effect on cell proliferation: MCF-7, 0.5-20 μM, 24 h
Experimental: (§1) Initially, we examined the effect of six nitro-substituted hydroxynaphthanilides on the proliferation of human leukaemia and breast carcinoma cell lines, using Water Soluble Tetrazolium Salts-1 (WST-1) assay. For such analyses, THP-1 and MCF-7 cells were treated with the compounds at concentrations ranging from 0.5 to 20 μM for 24 h. […] The inhibitory effect of 2 and 6 was statistically significant (p < 0.001) starting from the concentration of 2.5 and 5 μM in THP-1 and MCF-7 cells, respectively. From the concentration-response curves, the IC50 values were determined.
(§2) THP-1 human monocytic leukemia cell line, MCF-7 human breast adenocarcinoma cells and 3T3-L1 mouse embryonic fibroblast were purchased from the European Collection of Cell Cultures (ECACC, Salisbury, UK). Cells were routinely tested for the absence of mycoplasma (Hoechst 33258 staining method). THP-1 cells were maintained in RPMI 1640 culture medium containing 2 mM L-glutamine; MCF-7 and 3T3-L1 cells were cultured in DMEM medium. All of the culture media were supplemented with 10% heat-inactivated FBS and antibiotics (100 U/mL penicillin and 100 μg/mL streptomycin). Cells were maintained at 37 °C in a humidified atmosphere containing 5% CO2.
(§3) Cell proliferation was evaluated using Cell Proliferation Reagent WST-1 (2-(4-iodophenyl)-3-(4-nitrophenyl)-5-(2,4-disulfophenyl)-2H-tetrazolium) (Roche Diagnostics, Mannheim, Germany) according to the manufacturer´s instructions. THP-1 (5 × 10^4 cells/100 μL culture medium per well), MCF-7 cells (1 × 10^4 cells/100 μL per well), and 3T3-L1 (2.5 × 10^3 cells/100 μL per well) were cultured in 96-well plates in triplicate. The measurement was performed using Synergy 2 Multi-Mode Microplate Reader (BioTek, Winooski, VT, USA) after 24 h incubation of cells with tested compounds dissolved in DMSO and subsequently in RPMI 1640 to final concentration ranging 0.5–20 μM in the assays. Cell viability was assessed by dye exclusion test. THP-1 (2 × 10^5 cells/mL per well) and MCF-7 cells (8 × 10^4 cells/mL per well) were incubated in 24-well plates with the indicated concentrations of compounds for 24 h. The number of viable cells was determined using hemocytometer after their staining with a solution of erythrosin B (0.1% erythrosin B (w/v) in PBS). The assays were conducted in triplicate. The IC50 and LC50 values were calculated from fitted concentration-response curves using GraphPad Prism 5.00 software (GraphPad Software, San Diego, CA, USA).

MCF-7 cells [2] = assay: Erythrosin B dye exclusion viability test, MCF-7; assay type: cell-based
Experimental: (§4) Subsequently, for the comparison of the antiproliferative and cytotoxic effects we assessed the cell viability after 24 h treatment with compounds 1–6 in both tumour cell lines using the dye exclusion test.
as §2, §3

[3] = Erythrosin B dye exclusion viability test, MCF-7; assay type: cell-based; conditions: human, MCF-7 cells; erythrosin B exclusion test, 24 h, mean ± SD; read-out: MCF-7 LC50
Experimental: as §4, §2, §3

THP-1 cells [4] = assay: Erythrosin B dye exclusion viability test, THP-1; assay type: cell-based
Experimental: as §4, §2, §3

[5] = Erythrosin B dye exclusion viability test, THP-1; assay type: cell-based; conditions: human, THP-1 cells; erythrosin B exclusion test, 24 h, mean ± SD; read-out: THP-1 LC50
Experimental: as §4, §2, §3

3T3-L1 cells = assay: WST-1 cell proliferation assay, 3T3-L1 non-tumour cells; assay type: cell-based, mouse; conditions: for effect on cell proliferation: 3T3-L1, 24 h; for IC50: Mus musculus, 3T3-L1, WST-1, 24 h, non-tumour cells, mean ± SD
Experimental: as §2, §3

THP-1 cells [6] = assay: WST-1 cell proliferation assay, THP-1; assay type: cell-based, human; conditions: for IC50: Homo sapiens, THP-1, WST-1, 24 h, 0.5-20 μM, mean ± SD; for effect on cell proliferation: THP-1, 0.5-20 μM, 24 h
Experimental: as §1, §2, §3

THP-1 cells [7] = assay: Annexin V-FITC/PI apoptosis assay by flow cytometry, THP-1; assay type: cell-based, human; conditions: mean
Experimental: (§5) Staining of cells by Annexin V-FITC conjugate reflects the externalization of phosphatidylserine on the outer surface of the cell membrane as one of the early indicators of apoptosis.
(§6) Early and late stages of apoptosis were detected using Annexin V-FITC Kit—Apoptosis Detection Kit faccording to the manufacturer´s instructions. […] At each time-point of incubation (12, 18, and 24 h) the cells were washed with ice-cold PBS prior to being resuspended at a concentration of 5 × 10^6 cells/mL in a total volume of 100 μL of 1× binding buffer. Annexin V-FITC solution (final concentration 0.25 μg/mL) and PI (final concentration 12.5 μg/mL) were added to each sample; the cell suspension was kept on ice and incubated for 15 min in the dark. After that, the analysis was carried out by flow cytometry. The data were evaluated using Kaluza Flow Cytometry Analysis 1.2. Per sample, a total number of 2 × 10^4 cells were analysed.

[8] = as above; assay type: cell-based, human; conditions: human, THP-1 cells, THP-1, 5 μM, representative dot plot, read-out: quadrant I: viable cells
Experimental: as §5, §6

THP-1 cells [9] = assay: Flow cytometric cell cycle analysis (PI), THP-1; assay type: cell-based, human; conditions: THP-1, 24 h
Experimental: (§7) In order to determine at which stage of the cell cycle these compounds induce cell growth inhibition, flow cytometric analyses of cell cycle profiles in THP-1 and MCF-7 cell lines were performed. […] Therefore, THP-1 and MCF-7 cells were treated for 24 h with the compounds at concentrations of 2.5, 5, and 10 μM, respectively. In general, we detected a qualitatively similar effect on the distribution of cells in cell cycle phases following the treatment with compounds 2 and 6 in both leukaemia and breast carcinoma cells. […] This was in concert with a simultaneous decrease in the number of cells observed in the S phase compared to the drug-free control, while the percentage of cells in the G2/M phase remained unchanged.
(§8) THP-1 and sub-confluent MCF-7 cells were treated and subsequently incubated with indicated concentrations of compounds 2 and 6 for 24 h. After the incubation, cells were washed twice in PBS (pH 7.4), fixed in 70% ethanol and stored at −20 °C overnight. Fixed cells were collected by centrifugation, and supernatant was discarded. The cell pellet was washed twice with PBS and incubated with RNaseA (0.02 mg/mL) and 0.05% (v/v) Triton X-100 in PBS for 30 min at 37 °C. After the nuclei staining with propidium iodide (PI) (0.04 mg/mL), the cell cycle distribution was analysed using a flow cytometer Cell Lab Quanta SC (Beckman Coulter, Brea, CA, USA). The quantification of cell cycle distribution was carried out using software MultiCycle AV (Phoenix Flow System, San Diego, CA, USA). A total number of 2 × 10^4 cells was analysed per sample.

MCF-7 cells [10] = assay: Flow cytometric cell cycle analysis (PI), MCF-7; assay type: cell-based, human; conditions: MCF-7, 24 h
Experimental: as §7, §8

cyclin E1 [11] = assay: Western blot of cyclin E1 in MCF-7 cells; assay type: cell-based, human; conditions: MCF-7, 24 h
Experimental: (§9) Additionally, the cell cycle analysis allows determining the presence of a subdiploid cell population as a characteristic marker of cells with fractional DNA content. A significant increase (p < 0.001) of the sub-G1 peak was found only after the treatment with 5 µM of compound 2 in THP-1 cells, where an approximately eight-fold increase was observed compared to the drug-free control (Figure 4).
(§10) For Western blotting, cells were washed with PBS and lysed in lysis buffer (100 mM Tris-HCl, pH = 6.8; 20% glycerol; 1% SDS) containing protease and phosphatase inhibitor cocktails. Protein concentration was measured using Roti®-Quant universal (Carl Roth, Karsruhe, Germany) according to the manufacturer’s instructions. Cell lysates were supplemented with bromophenol blue (final concentration 0.01% (w/v)) and β-mercaptoethanol (final concentration 1% (v/v)) prior to being heated for 5 min at 95 °C. Equal amounts of protein (10 μg) were loaded into a 12% polyacrylamide gel, separated by SDS-polyacrylamide gel electrophoresis and subsequently electrotransferred onto nitrocellulose membranes. Reversible Ponceau S. staining was performed to assess equal sample loading. […] The intensity of bands was semi-quantitatively analysed using the ImageJ software (National Institute of Mental Health, Bethesda, MD, USA).

cyclin B1 [12] = assay: Western blot of cyclin B1 in MCF-7 cells; assay type: cell-based, human; conditions: MCF-7, 24 h
Experimental: as §9, §10

cyclin B1 [13] = assay: Western blot of cyclin B1 in THP-1 cells; assay type: cell-based, human; conditions: THP-1, 24 h
Experimental: as §9, §10

cyclin E1 [14] = assay: Western blot of cyclin E1 in THP-1 cells; assay type: cell-based, human; conditions: THP-1, 24 h
Experimental: as §9
For Western blotting, cells were washed with PBS and lysed in lysis buffer (100 mM Tris-HCl, pH = 6.8; 20% glycerol; 1% SDS) containing protease and phosphatase inhibitor cocktails. Protein concentration was measured using Roti®-Quant universal (Carl Roth, Karsruhe, Germany) according to the manufacturer’s instructions. Cell lysates were supplemented with bromophenol blue (final concentration 0.01% (w/v)) and β-mercaptoethanol (final concentration 1% (v/v)) prior to being heated for 5 min at 95 °C. Equal amounts of protein (10 μg) were loaded into a 12% polyacrylamide gel, separated by SDS-polyacrylamide gel electrophoresis and subsequently electrotransferred onto nitrocellulose membranes. Reversible Ponceau S. staining was performed to assess equal sample loading. Then, the membranes were blocked with 5% non-fat dry milk in TBST (10 mM Tris-HCl pH = 7.5, 150 mM NaCl, 0.1% (v/v) Tween-20) and appropriate primary and secondary antibodies were used for immunodetection. The proteins were visualized by ECL Plus reagent according to the manufacturer’s instructions. The intensity of bands was semi-quantitatively analysed using the ImageJ software (National Institute of Mental Health, Bethesda, MD, USA).

| SMILES | IC50 (MCF-7 cells [1]) [µM] | effect on cell proliferation (MCF-7 cells [1]) | CC50 at 24 h [3] [µM] | CC50 at 24 h [5] [µM] | IC50 (3T3-L1 cells) [µM] | IC50 (THP-1 cells [6]) [µM] | effect on cell proliferation (THP-1 cells [6]) | other results |
| --- | --- | --- | --- | --- | --- | --- | --- | --- |
| O=C(Nc1ccc([N+](=O)[O-])cc1)c1cc2ccccc2cc1O [Compound 3] | 1.65 ± 0.938 | inhibit cell growth in both cell lines in a dose-dependent manner | 12.9 ± 1.98 | 3.44 ± 1.21 | 4.41 ± 0.293 | 1.05 ± 0.199 | inhibit cell growth in both cell lines in a dose-dependent manner | LC50 in comparison with IC50 (MCF-7 cells [2]; MCF-7 cells): approximately seven-fold; LC50 compared to IC50 (THP-1 cells [4]): 2–3 fold; effect on cell proliferation (3T3-L1 cells): affected the proliferation of 3T3-L1 cells in a dose-dependent manner |
| CC[C@@]1(O)C(=O)OCc2c1cc1n(c2=O)Cc2cc3ccccc3nc2-1 [camptothecin, reference compound] |  |  |  |  |  |  |  | early apoptotic cells (THP-1 cells [7]; THP-1, 5 µM, 12 h): 21.28%; late apoptotic cells (THP-1 cells [7]; THP-1, 5 µM, 12 h): 24.10%; early apoptotic cells (THP-1 cells [7]; THP-1, 5 µM, 24 h): 9.65%; late apoptotic cells (THP-1 cells [7]; THP-1, 5 µM, 24 h): 33.08%; viability at 12 h, 5 µM ([8]; 12 h): 55.8%; viability at 18 h, 5 µM ([8]; 18 h): 53.8%; viability at 24 h, 5 µM ([8]; 24 h): 50.9% |
| O=C(Nc1ccc([N+](=O)[O-])cc1)c1c(O)ccc2ccccc12 [Compound 6, 2-hydroxy-N-(4-nitrophenyl)-naphthalene-1-carboxamide] | 5.23 ± 0.802 | inhibit cell growth in both cell lines in a dose-dependent manner | > 20 | 9.98 ± 0.349 | > 20 | 5.8 ± 0.37 | inhibit cell growth in both cell lines in a dose-dependent manner | concentration from which the inhibitory effect on proliferation was statistically significant (p < 0.001) (MCF-7 cells [1]; MCF-7, 24 h): 5 µM; effect on cell viability (MCF-7 cells [2]; MCF-7, 24 h, vs control): Neither compound 2 nor 6 reduced cell viability under 50%; distribution of cells in cell cycle phases (THP-1 cells [9]): induced accumulation of cells in G1 phase; sub-G1 / sub-diploid population (THP-1 cells [9]): no significant increase of sub-diploid population; distribution of cells in cell cycle phases (MCF-7 cells [10]): induced accumulation of cells in G1 phase; sub-G1 / sub-diploid population (MCF-7 cells [10]): no significant increase of sub-diploid population; LC50 compared to IC50 (THP-1 cells [4]): 2–3 fold; expression of cyclin E1 (cyclin E1 [11]): dose-dependent decrease in expression of cyclin E1; total protein levels of cyclin B1 (cyclin B1 [12]): total protein levels of cyclin B1 were not changed; total protein levels of cyclin B1 (cyclin B1 [13]): total protein levels of cyclin B1 were not changed; effect on cell proliferation (3T3-L1 cells): did not decrease cell growth at any of concentrations used; concentration from which the inhibitory effect on proliferation was statistically significant (p < 0.001) (THP-1 cells [6]; THP-1, 24 h): 2.5 µM; expression of cyclin E1 (cyclin E1 [14]): dose-dependent decrease in expression of cyclin E1; levels of cyclin E1 low molecular weight (LMW E1) isoform (cyclin E1 [14]): more pronounced reduction of LMW E1 isoform levels |
| O=C(Nc1ccccc1[N+](=O)[O-])c1c(O)ccc2ccccc12 [Compound 4] | > 20 | neither compound 1 nor 4 (both ortho-substituted derivatives) was able to induce the inhibition of cell growth | > 20 | > 20 | > 20 | > 20 | neither compound 1 nor 4 (both ortho-substituted derivatives) was able to induce the inhibition of cell growth |  |
| O=C(Nc1cccc([N+](=O)[O-])c1)c1c(O)ccc2ccccc12 [Compound 5] | > 20 | a 50% reduction in cell growth was not achieved | > 20 | > 20 | > 20 | > 20 | proliferation of THP-1 cells was not affected |  |
| O=C(Nc1ccccc1[N+](=O)[O-])c1cc2ccccc2cc1O [Compound 1] | > 20 | neither compound 1 nor 4 (both ortho-substituted derivatives) was able to induce the inhibition of cell growth | > 20 | > 20 | > 20 | > 20 | neither compound 1 nor 4 (both ortho-substituted derivatives) was able to induce the inhibition of cell growth |  |
| N.N.[Cl][Pt][Cl] [cisplatin, reference compound] |  |  |  |  |  |  |  | early apoptotic cells (THP-1 cells [7]; THP-1, 10 µg/mL, 24 h): 44.38% |
